Values of other authors, collected in patent US10100341B2, “Tailored oils produced from recombinant oleaginous microorganisms” (Corbion Biotech, Inc., priority 2011, dated 2018).

Tested on: Rhodococcus opacus
Details: 1 mg/ml thiostrepton; cited from earlier work

C=C(NC(=O)C(=C)NC(=O)c1csc(C2=N[C@@H]3c4csc(n4)[C@H]4NC(=O)c5csc(n5)[C@H]([C@](C)(O)[C@@H](C)O)NC(=O)[C@H]5CSC(=N5)/C(=C/C)NC(=O)[C@H]([C@@H](C)O)NC(=O)c5csc(n5)[C@]3(CC2)NC(=O)[C@H](C)NC(=O)C(=C)NC(=O)[C@H](C)NC(=O)[C@H]([C@@H](C)CC)N[C@@H]2C=Cc3c([C@H](C)O)cc(nc3[C@H]2O)C(=O)O[C@@H]4C)n1)C(N)=O [thiostrepton]
propagation of untransformed cells in medium comprising the agent: unable to propagate
